What was measured:
human fetal kidney cells [1] = experiment: β-catenin immunofluorescence after VPA; type: cell-based; conditions: valproic acid 24 hours, vs non-treated cells
Protocol: (§1) Immunofluorescence Staining: AK, FK (treated and untreated) human epithelial cell line and fibroblast cell line were fixed with acetone at −20° C. for seven minutes and washed with PBS. Cells were blocked with 7% human serum in PBS for 15 minutes followed by incubation with β-catenin antibody (1:150) (Chemicon international) for 60 minutes. Cells were washed and then incubated with secondary antibody with Cy-3 conjugated anti-mouse IgG (1:200) (Jackson) for 30 minutes. For nuclear staining, cells were washed with PBS containing Hochest (Dako). The presence of β-catenin was examined under a Zeiss confocal fluorescence microscope.

human adult kidney cells [2] = experiment: β-catenin immunofluorescence after VPA; type: cell-based; conditions: valproic acid 24 hours, vs non-treated cells
Protocol: as §1

human adult kidney cells [3] = experiment: qRT-PCR gene expression after TSA/AzaC or VPA treatment; type: cell-based; conditions: HAK cells, 24 h VPA, particularly in VPA-2 mM
adult kidney cells = experiment: Chromatin immunoprecipitation (ChIP) of Six2 and Wt1 promoters; type: cell-based, human; conditions: VPA 4 mM
Protocol: Chromatin Immunoprecipitation Assay (ChIP): 10×10^6 cells adult kidney cells were grown. Untreated cells (control) or cells treated with VPA (4 mM) were cross-linked with 1% formaldehayde for 10 min at RT in culture medium. The cells were washed and harvested in cold phosphate-buffered saline (PBS) containing protease inhibitors (Complete mini, Roche Applied Science) and Pepstatin (Sigma). The cells were then washed with Buffer B (20 mM Hepes pH 7.6, 0.25% Triton-x, 10 mM EDTA, 0.5 mM EGTA) and Buffer C (50 mM Hepes pH 7.6, 150 mM NaCl, 1 mM EDTA, 0.5 mM EGTA) were resuspended in 300 μl of SDS lysis buffer [1% SDS, 10 mM EDTA and 50 mM Tris-HCl (pH 8.1)], and incubated on ice for 10 minutes. Lysates were sonicated with 8×10 second bursts and debris were removed by centrifugation for 10 minutes at 1000 g, at 4° C. Supernatants were diluted 10-fold in ChIP dilution buffer [0.01% SDS, 1.1% Triton X-100, 1.2 mM EDTA, 16.7 mM Tris-HCl (pH 8.1) and 167 mM NaCl] and pre-cleared by incubating with 40 μl of protein A+salmon sperm beads (Upstate Biotechnology) for 30 minutes at 4° C. Beads were pelleted for 1 minute at 1000 g at 4° C. A total of 10 μl of the supernatant was saved as input, and the rest was divided into equal aliquots and incubated by rocking with either control Ab (IgG) or with of specific antibodies; Trimethyl-Histon 3K27 antibody (Upstate Biotechnology), anti acetylatedhistone H4 (Upstate Biotechnology) over night at 4° C. A total of 60 μl of protein A+salmon sperm beads was added, and the samples were rocked for 2 hours at 4° C. The complexes on the beads were washed for 5 minutes at 4° C. with the following buffers: low salt [0.1% SDS, 1% Triton X-100, 2 mM EDTA, 20 mM Tris-HCl (pH 8.1) and 150 mM NaCl], high salt [0.1% SDS, 1% Triton X-100, 2 mM EDTA, 20 mM Tris-HCl (pH 8.1), 500 mM NaCl], LiCl wash [0.25 M LiCl, 1% Nonidet P-40, 1% deoxycholate, 1 mM EDTA and 10 mM Tris-HCl (pH 8.1)], and twice with TE [10 mM Tris-HCl and 1 mM EDTA (pH 8.0)]. Immune complexes were eluted twice with 200 μl of elution buffer [1% SDS and 0.1 M NaHCO3]for 15 minutes at room temperature. The samples were de-crosslinked by adding 16 μl of 5 M NaCl, 8 μl of 0.5 M EDTA (pH 6.5) and 16 μl of 1M Tris-HCl (pH 8.1) and incubated O.N at 65° C. Proteinase K (10 mg/ml) and the samples were incubated for additional 2 hours at 55° C. Immunoprecipitated DNA was recovered by phenol/chloroform extraction and ethanol precipitation and was analyzed by quantitative RT PCR.

human adult kidney cells [4] = experiment: Western blot for Six2 and Wt1 after VPA; type: cell-based; conditions: 24 h after VPA exposure
Protocol: (§2) Cell Treatment: Cells were treated for 24 hours with growth medium supplemented with 1, 2, or 4 mM VPA (Sigma) or with H2O for control sample. Otherwise, cells were treated for 24 hours with growth medium supplemented with the combination of 75 μM TSA (Sigma) and 250 μM 5-AZA (Sigma) or with 100% Ethanol and Acetic Acid (Acetic Acid: H2O 1:1) for control sample. […] 24 hours prior to harvesting VPA at a concentration of 4 mM was added to the cell culture.
Western Blot: AK, FK (treated and untreated) and Melanoma cells were harvested with Tripsin/EDTA. Cell extracts were prepared with lysis buffer (50 mM Tris-HCl, 150 mM NaCl, 0.1 mM EDTA, 0.5 mM DTT, 1.5 mM MgCl, 0.5% Triton-X) and their concentrations were detected by BCA protein assay kit (Thermo scientific). 100 μg of total proteins were heated at 95° C. for 5 min with laemmli sample buffer (Bio-rad) and then were loaded on SDS-10% polyacrylamide gel. After electrophoresis, proteins were transferred to nitrocellulose membrane that was blocked with 5% nonfat dry milk overnight at 4° C. The membrane was reacted with the required antibodies, namely Six2 (Affinity Bioreagents), WT1 (Santa Cruz), goat anti-rabbit IgG (Jackson). The membrane was reacted with ECL substrate (Thermo scientific) and was exposed to medical x-ray film (Fuji).

human fetal kidney cells [5] = experiment: Flow cytometry of renal progenitor surface markers after VPA; type: cell-based; conditions: 24 h 4 mM VPA, FACS
Protocol: as §2
(§3) Flow Cytometry: Cells were detached from culture plated with non-enzymatic cell dissociation solution (Sigma-Aldrich). Cells (1×10^5 in each reaction) were suspended in 50 μl of FACS buffer [0.5% BSA and 0.02% sodium azid in PBS (Sigma-Aldrich and Invitrogen, respectively)] and blocked with FcR Blocking Reagent (MiltenyiBiotec) and human serum (1:1) for 15 minutes. Cells were then incubated for 45 minutes with the following primary antibodies: CD24-PE, NCAM1-PE, (both from eBioscience), CD133-APC, PSA-NCAM (both from MiltenyiBiotec), FZD7-biotin, NTRK2 (both from R&D Systems) or a matching isotype control. Cells were washed with FACS buffer, and incubated for 30 minutes with a secondary antibody if needed: goat anti mouse Streptavidin-APC (BD) or goat anti mouse Alexa Fluor 647 (Invitrogen). Cell's labeling was detected using FACSCalibur (BD). Flow cytometry results were analyzed using FlowJo analysis software. Viable cells were gated by both their FSC/SSC profile and 7AAD (eBioscience) exclusion.

human adult kidney cells [6] = experiment: as above; type: cell-based; conditions: 24 h 4 mM VPA, FACS
Protocol: as §2, §3

Oct4 OE HAK cells = experiment: qRT-PCR of Oct4 over-expressing HAK cells with or without VPA; type: cell-based, human

CCCC(CCC)C(=O)O [VPA, valproic acid]
β-catenin immunofluorescence localisation (human fetal kidney cells [1]): cyoplasmic and nuclear accumulation | β-catenin immunofluorescence localisation (human adult kidney cells [2]): cyoplasmic and nuclear accumulation | Oct4 mRNA expression change (human adult kidney cells [3]): significantly up-regulated | H3K4me at Six2 promoter regions (adult kidney cells): significant increases | H3K4me elevation in the Wt1 promoter region (adult kidney cells): not | H3K27me in the Wt1 promoter region (adult kidney cells): modest elevation | H3K27me levels at Six2 promoter regions (adult kidney cells): no change | acetylated histones H4 at Six2 promoter regions (-92, -412, -541, -731, -955, -1157) (adult kidney cells): significantly increased | Six2 protein levels (human adult kidney cells [4]; 4 mM): increment | Wt1 protein levels (human adult kidney cells [4]; 2 and 4 mM): no changes | CD133 surface expression (human fetal kidney cells [5]): milder changes | NCAM surface expression levels (human fetal kidney cells [5]): significant upregulation | PSA-NCAM surface expression levels (human fetal kidney cells [5]): significant upregulation | PSA-NCAM surface expression elevation (human adult kidney cells [6]; especially in the adult kidney): 5-10 fold | CD133 surface expression (human adult kidney cells [6]; adult kidney cells): milder changes | NCAM surface expression levels (human adult kidney cells [6]; adult kidney cells): significant upregulation | Six2 expression, VPA exposure combined with Oct4 OE (Oct4 OE HAK cells): higher Six2 expression pattern compared to each of the single manipulations
